Data taken from patent publication US20140155415A1, “BENZ[…] BENZODIOXINE COMPOUNDS THAT INTERACT WITH G[…] FOR THE TREATMENT OF DIABETES” (priority 2011, published 2014).
Blank lines part the entries; values can stand above or below the molecule they belong to.

Assays:
[1] = biological target: T1, GK-GKRP (interaction between glucokinase and glucokinase regulatory protein) (Homo sapiens, UniProt Q14397); assay: GK-GKRP Binding Assay (Binding), AlphaScreen; conditions: avi-tagged GKRP, GK-fluorescein, AlphaScreen beads, 1 μM sorbitol-6-phosphate; read-out: GK-GKRP IC50 (Binding)
T1 construct: made in house; host or cells: GKRP: baculovirus system
T1 sequence (Q14397 1-625): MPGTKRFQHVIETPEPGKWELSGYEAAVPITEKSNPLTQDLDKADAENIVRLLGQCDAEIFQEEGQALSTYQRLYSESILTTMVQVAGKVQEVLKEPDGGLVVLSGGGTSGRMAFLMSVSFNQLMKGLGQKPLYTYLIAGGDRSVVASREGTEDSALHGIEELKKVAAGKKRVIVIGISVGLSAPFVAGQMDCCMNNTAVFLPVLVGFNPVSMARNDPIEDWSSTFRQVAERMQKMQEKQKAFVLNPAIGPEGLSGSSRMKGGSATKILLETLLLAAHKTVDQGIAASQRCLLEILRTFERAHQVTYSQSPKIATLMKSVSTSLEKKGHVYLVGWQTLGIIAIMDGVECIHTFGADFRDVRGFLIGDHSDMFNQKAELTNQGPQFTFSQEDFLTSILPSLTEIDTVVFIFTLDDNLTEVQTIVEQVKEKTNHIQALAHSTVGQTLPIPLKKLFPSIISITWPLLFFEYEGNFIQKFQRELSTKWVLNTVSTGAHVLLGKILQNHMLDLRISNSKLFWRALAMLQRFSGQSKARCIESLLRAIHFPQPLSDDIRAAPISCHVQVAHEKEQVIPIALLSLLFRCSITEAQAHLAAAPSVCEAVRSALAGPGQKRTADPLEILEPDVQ
Method in brief: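 Biotinylated, C-terminally avi-tagged human GKRP was preincubated 20 min at room temperature with compound, then fluorescein-labelled human hepatic GK was added (6 nM in the added buffer). The mix was incubated 2 h at room temperature in the dark before AlphaScreen reading. Buffer was 20 mM Tris pH 7.5, 0.05% BSA, 1 mM DTT, 1 μM sorbitol-6-phosphate.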

[2] = biological target: T2, GK-GKRP (glucokinase / glucokinase regulatory protein) (Homo sapiens, UniProt Q14397); assay: GKRP LC MS/MS Biochemical Assay (LCMS/MS); conditions: formation of 13C-glucose-6-phosphate from 13C-glucose by LC MS/MS, human His-hepatic GK, fructose-6-phosphate
T2 sequence (Q14397 1-625): T1 sequence (Q14397 1-625)
Method in brief: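 Human His-tagged hepatic GK (30 nM working stock, 5×) with GKRP in 50 mM Tris pH 7.5, 4 mM MgCl2, 6% DMSO; compound preincubated 30 min, then GK added for 30 min at room temperature. Acetonitrile-stopped; 13C-glucose-6-phosphate formed from 13C-glucose quantified by LC MS/MS.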

IC50 [1]: 860 nM
EC50 [2]: 240 nM
SMILES: O=S(=O)(NC(c1ccccc1)c1ccc2ccccc2c1)c1ccc2c(c1)OCCCO2 (racemic) [Example 55, N-(2-naphthalenyl(phenyl)methyl)-3,4-dihydro-2H-1,5-benzo dioxepine-7-sulfonamide]

IC50 [1]: 310 nM
EC50 [2]: 110 nM
SMILES: O=S(=O)(NC(c1ccccc1)c1cc2ccccc2s1)c1ccc2c(c1)OCCCO2 (racemic) [Example 57, N-(1-benzothiophen-2-yl(phenyl)methyl)-3,4-dihydro-2H-1,5-benzodioxepine-7-sulfonamide]

IC50 [1]: 790 nM
EC50 [2]: 200 nM
SMILES: COc1ccc2sc(C(NS(=O)(=O)c3ccc4c(c3)OCCCO4)c3ccccc3)cc2c1 (racemic) [Example 58, N-((5-methoxy-1-benzothiophen-2-yl)(phenyl)methyl)-3,4-dihydro-2H-1,5-benzodioxepine-7-sulfonamide]

IC50 [1]: 630 nM
EC50 [2]: 300 nM
SMILES: O=S(=O)(NC(c1ccccc1)c1nc2ccccc2s1)c1ccc2c(c1)OCCCO2 (racemic) [Example 59, N-(1,3-benzothiazol-2-yl(phenyl)methyl)-3,4-dihydro-2H-1,5-benzodioxepine-7-sulfonamide]

IC50 [1]: 360 nM
EC50 [2]: 570 nM
SMILES: O=S(=O)(NC(c1ccccc1)c1cc2ccncc2s1)c1ccc2c(c1)OCCCO2 (racemic) [Example 60, N-(phenyl(thieno[2,3-c]pyridin-2-yl)methyl)-3,4-dihydro-2H-1,5-benzodioxepine-7-sulfonamide]

IC50 [1]: 2300 nM
EC50 [2]: 2500 nM
SMILES: O=S(=O)(NC(c1ccccc1)c1cc2ncccc2s1)c1ccc2c(c1)OCCCO2 (racemic) [Example 61, N-(phenyl(thieno[3,2-b]pyridin-2-yl)methyl)-3,4-dihydro-2H-1,5-benzodioxepine-7-sulfonamide]

IC50 [1]: 11000 nM
EC50 [2]: 4600 nM
SMILES: O=S(=O)(NC(c1ccccc1)c1cc2cnccc2s1)c1ccc2c(c1)OCCCO2 (racemic) [Example 62, N-(phenyl(thieno[3,2-c]pyridin-2-yl)methyl)-3,4-dihydro-2H-1,5-benzodioxepine-7-sulfonamide]

IC50 [1]: 4200 nM
EC50 [2]: 3200 nM
SMILES: O=S(=O)(NC(c1ccccc1)c1cc2cc(O)ccc2s1)c1ccc2c(c1)OCCCO2 (racemic) [Example 63, N-((5-hydroxy-1-benzothiophen-2-yl)(phenyl)methyl)-3,4-dihydro-2H-1,5-benzodioxepine-7-sulfonamide]

IC50 [1]: 21 nM
EC50 [2]: 26 nM
SMILES: C[C@](O)(c1ccnc(-c2cccc3cc([C@@H](NS(=O)(=O)c4ccc5c(c4)OCCCO5)c4ccccc4)sc23)c1)C(F)(F)F (racemic) [Example 70, N-(phenyl(7-(4-(2,2,2-trifluoro-1-hydroxy-1-methylethyl)-2-pyridinyl)-1-benzothiophen-2-yl)methyl)-3,4-dihydro-2H-1,5-benzodioxepine-7-sulfonamide]

IC50 [1]: 540 nM
EC50 [2]: 290 nM
SMILES: O=S(=O)(NC(c1ccccc1)c1cc2cccc(-c3ccccn3)c2s1)c1ccc2c(c1)OCCCO2 (racemic) [Example 71, N-(phenyl(7-(2-pyridinyl)-1-benzothiophen-2-yl)methyl)-3,4-dihydro-2H-1,5-benzodioxepine-7-sulfonamide]

IC50 [1]: 1000 nM
EC50 [2]: 480 nM
SMILES: O=S(=O)(NC(c1ccccc1)c1cc2cccc(Cl)c2s1)c1ccc2c(c1)OCCCO2 (racemic) [Example 72, N-((7-chloro-1-benzothiophen-2-yl)(phenyl)methyl)-3,4-dihydro-2H-1,5-benzodioxepine-7-sulfonamide]

IC50 [1]: 1200 nM
EC50 [2]: 1000 nM
SMILES: O=S(=O)(NC(c1ccccc1)c1cc2cccc(-c3ccccc3)c2s1)c1ccc2c(c1)OCCCO2 (racemic) [Example 73, N-(phenyl(7-phenyl-1-benzothiophen-2-yl)methyl)-3,4-dihydro-2H-1,5-benzodioxepine-7-sulfonamide]

More lines, now with the values behind:

SMILES: COc1ccccc1C(NS(=O)(=O)c1ccc2c(c1)OCCCO2)c1nc2ccccc2s1 (racemic) [Example 51, N-(1,3-benzothiazol-2-yl(2-methoxyphenyl)methyl)-3,4-dihydro-2H-1,5-benzodioxepine-7-sulfonamide]
IC50 [1]: 42 nM
EC50 [2]: 68 nM

SMILES: CSc1ccccc1C(NS(=O)(=O)c1ccc2c(c1)OCCCO2)c1nc2ccccc2s1 (racemic) [Example 52, N-(1,3-benzothiazol-2-yl(2-(methylsulfanyl)phenyl)methyl)-3,4-dihydro-2H-1,5-benzodioxepine-7-sulfonamide]
IC50 [1]: 6 nM
EC50 [2]: 29 nM

SMILES: COc1cccnc1C(NS(=O)(=O)c1ccc2c(c1)OCCCO2)c1nc2ccccc2s1 (racemic) [Example 53, N-(1,3-benzothiazol-2-yl(3-methoxy-2-pyridinyl)methyl)-3,4-dihydro-2H-1,5-benzodioxepine-7-sulfonamide]
IC50 [1]: 270 nM
EC50 [2]: 360 nM

SMILES: O=S(=O)(NC(c1ccccc1)c1nc2ccccc2o1)c1ccc2c(c1)OCCCO2 (racemic) [Example 54, N-(1,3-benzoxazol-2-yl(phenyl)methyl)-3,4-dihydro-2H-1,5-benzo dioxepine-7-sulfonamide]
IC50 [1]: 1100 nM
EC50 [2]: 750 nM

SMILES: O=S(=O)(NC(c1ccccc1)c1ccc2ccccc2n1)c1ccc2c(c1)OCCCO2 (racemic) [Example 56, N-(phenyl(2-quinolinyl)methyl)-3,4-dihydro-2H-1,5-benzodioxepine-7-sulfonamide]
IC50 [1]: 1400 nM
EC50 [2]: 720 nM

SMILES: CSc1ccccc1C(NS(=O)(=O)c1ccc2c(c1)OCCCO2)c1cc2ccncc2s1 (racemic) [Example 64, N-((2-(methylsulfanyl)phenyl)(thieno[2,3-c]pyridin-2-yl)methyl)-3,4-dihydro-2H-1,5-benzodioxepine-7-sulfonamide]
IC50 [1]: 4 nM
EC50 [2]: 20 nM

SMILES: CSc1ccccc1C(NS(=O)(=O)c1ccc2c(c1)OCCCO2)c1nc2cccnc2s1 (racemic) [Example 65, N-((2-(methylsulfanyl)phenyl)([1,3]thiazolo[5,4-b]pyridin-2-yl)methyl)-3,4-dihydro-2H-1,5-benzodioxepine-7-sulfonamide]
IC50 [1]: 9 nM
EC50 [2]: 37 nM

SMILES: COc1ccccc1C(NS(=O)(=O)c1ccc2c(c1)OCCCO2)c1cc2ccncc2s1 (racemic) [Example 66, N-((2-methoxyphenyl)(thieno[2,3-c]pyridin-2-yl)methyl)-3,4-dihydro-2H-1,5-benzodioxepine-7-sulfonamide]
IC50 [1]: 72 nM
EC50 [2]: 82 nM

SMILES: COc1ccccc1C(NS(=O)(=O)c1ccc2c(c1)OCCCO2)c1nc2cccnc2s1 (racemic) [Example 67, N-((2-methoxyphenyl)([1,3]thiazolo[5,4-b]pyridin-2-yl)methyl)-3,4-dihydro-2H-1,5-benzodioxepine-7-sulfonamide]
IC50 [1]: 58 nM
EC50 [2]: 95 nM

SMILES: O=S(=O)(NC(c1nc2cccnc2s1)c1ccccc1Cl)c1ccc2c(c1)OCCCO2 (racemic) [Example 68, N-((2-chlorophenyl)([1,3]thiazolo[5,4-b]pyridin-2-yl)methyl)-3,4-dihydro-2H-1,5-benzodioxepine-7-sulfonamide]
IC50 [1]: 54 nM
EC50 [2]: 63 nM

SMILES: CSc1ccccc1C(NS(=O)(=O)c1ccc2c(c1)OCCO2)c1cc2ccccc2s1 (racemic) [Example 75, N-(1-benzothiophen-2-yl(2-(methylsulfanyl)phenyl)methyl)-2,3-dihydro-1,4-benzodioxine-6-sulfonamide]
IC50 [1]: 950 nM
EC50 [2]: 340 nM

SMILES: CCc1ccccc1[C@H](NS(=O)(=O)c1ccc2c(c1)OCCCO2)c1cc2ccccc2o1 (single isomer, unassigned) [Example 6 Peak #1]
IC50 [1]: 4800 nM
EC50 [2]: > 50000 nM

SMILES: CCc1ccccc1[C@@H](NS(=O)(=O)c1ccc2c(c1)OCCCO2)c1cc2ccccc2o1 (single isomer, unassigned) [Example 6 Peak #2]
IC50 [1]: 110 nM
EC50 [2]: 40 nM

SMILES: COc1ccccc1[C@H](NS(=O)(=O)c1ccc2c(c1)OCCCO2)c1cc2ccccc2o1 (single isomer, unassigned) [Example 17 Peak #1]
IC50 [1]: 1200 nM
EC50 [2]: 6100 nM

SMILES: COc1ccccc1[C@@H](NS(=O)(=O)c1ccc2c(c1)OCCCO2)c1cc2ccccc2o1 (single isomer, unassigned) [Example 17 Peak #2]
IC50 [1]: 52 nM
EC50 [2]: 52 nM

SMILES: CSc1ccccc1[C@H](NS(=O)(=O)c1ccc2c(c1)OCCCO2)c1cc2ccccc2o1 (single isomer, unassigned) [Example 19 Peak #1]
IC50 [1]: 970 nM
EC50 [2]: 290 nM
